Laboratory results from ChEMBL document CHEMBL1157550, “Incorporation of fluorinated phenylalanine generates highly specific inhibitor of proteasome's chymotrypsin-like sites” (J Med Chem, 2010).
Calls of active or inactive are those of the source. No cut-off for these calls is given here.

Tests used:
[1] = molecular target: T1, Proteasome Macropain subunit MB1 (Homo sapiens) (UniProt P28074); assay: Displacement of fluorescent labeled MV151 from 26S proteasome beta 5 in human HEK293 cell lysate assessed as residual activity at 100 uM after 1 hr by SDS-PAGE; format: cell-free
T1 sequence (whole entry): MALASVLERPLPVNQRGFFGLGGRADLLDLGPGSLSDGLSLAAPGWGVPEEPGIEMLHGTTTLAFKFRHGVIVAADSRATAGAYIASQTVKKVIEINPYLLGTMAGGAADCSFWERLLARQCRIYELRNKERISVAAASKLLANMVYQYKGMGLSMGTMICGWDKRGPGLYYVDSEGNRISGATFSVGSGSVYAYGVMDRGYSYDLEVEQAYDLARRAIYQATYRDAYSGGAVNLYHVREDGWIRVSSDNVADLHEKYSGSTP

[2] = molecular target: T2, Proteasome component C5 (Homo sapiens) (UniProt P20618); assay: Inhibition of 26S proteasome beta 1 in human HEK293 cell lysate assessed as residual activity at 13.5 uM after 1 hr; format: cell-free
T2 sequence (whole entry): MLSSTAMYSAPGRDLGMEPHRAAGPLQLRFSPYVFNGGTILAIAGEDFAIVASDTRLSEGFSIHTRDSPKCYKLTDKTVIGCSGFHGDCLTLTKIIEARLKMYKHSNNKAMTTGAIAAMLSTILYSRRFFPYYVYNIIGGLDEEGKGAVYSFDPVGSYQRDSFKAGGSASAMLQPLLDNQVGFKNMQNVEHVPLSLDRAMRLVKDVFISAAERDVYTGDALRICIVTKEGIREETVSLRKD

[3] = molecular target: T2, Proteasome component C5 (Homo sapiens); assay: (§1) Inhibition of 26S proteasome beta 1 in human HEK293 cell lysate assessed as residual activity at […] after 1 hr; format: cell-free
[4] = molecular target: T2, Proteasome component C5 (Homo sapiens); assay: Inhibition of 26S proteasome beta 1 in human HEK293 cell lysate assessed as residual activity at 1.5 uM after 1 hr; format: cell-free
[5] = molecular target: T2, Proteasome component C5 (Homo sapiens); assay: Inhibition of 26S proteasome beta 1 in human HEK293 cell lysate assessed as residual activity at 0.5 uM after 1 hr; format: cell-free
[6] = molecular target: T2, Proteasome component C5 (Homo sapiens); assay: Inhibition of 26S proteasome beta 1 in human HEK293 cell lysate assessed as residual activity at 0.167 uM after 1 hr; format: cell-free
[7] = molecular target: T2, Proteasome component C5 (Homo sapiens); assay: as §1; format: cell-free; remark: listed apart in the source
[8] = molecular target: Proteasome Macropain subunit (Homo sapiens) (UniProt P49721); assay: (§2) Inhibition of 26S proteasome beta 2 in human HEK293 cell lysate assessed as residual activity at […] after 1 hr; format: cell-free
Sequence of Proteasome Macropain subunit (Homo sapiens) (P49721 whole entry): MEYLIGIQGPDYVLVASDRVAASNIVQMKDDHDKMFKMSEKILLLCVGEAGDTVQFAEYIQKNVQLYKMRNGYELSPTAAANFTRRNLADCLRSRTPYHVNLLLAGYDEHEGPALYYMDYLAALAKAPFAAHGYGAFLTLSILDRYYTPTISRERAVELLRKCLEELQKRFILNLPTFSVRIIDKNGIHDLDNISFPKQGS

[9] = molecular target: Proteasome Macropain subunit (Homo sapiens) (UniProt P49721); assay: Inhibition of 26S proteasome beta 2 in human HEK293 cell lysate assessed as residual activity at 1.5 uM after 1 hr; format: cell-free
[10] = molecular target: Proteasome Macropain subunit (Homo sapiens) (UniProt P49721); assay: Inhibition of 26S proteasome beta 2 in human HEK293 cell lysate assessed as residual activity at 0.5 uM after 1 hr; format: cell-free
[11] = molecular target: Proteasome Macropain subunit (Homo sapiens) (UniProt P49721); assay: Inhibition of 26S proteasome beta 2 in human HEK293 cell lysate assessed as residual activity at 0.167 uM after 1 hr; format: cell-free
[12] = molecular target: Proteasome Macropain subunit (Homo sapiens) (UniProt P49721); assay: as §2; format: cell-free; remark: listed apart in the source
[13] = molecular target: Proteasome Macropain subunit (Homo sapiens) (UniProt P49721); assay: Inhibition of 26S proteasome beta 2 in human HEK293 cell lysate assessed as residual activity at 13.5 uM after 1 hr; format: cell-free
[14] = molecular target: T2, Proteasome component C5 (Homo sapiens); assay: Displacement of fluorescent labeled MV151 from 26S proteasome beta 1 in human HEK293 cell lysate assessed as residual activity at 1 uM after 1 hr by SDS-PAGE; format: cell-free
[15] = molecular target: T2, Proteasome component C5 (Homo sapiens); assay: Displacement of fluorescent labeled MV151 from 26S proteasome beta 1 in human HEK293 cell lysate assessed as residual activity at 100 uM after 1 hr by SDS-PAGE; format: cell-free
[16] = molecular target: Proteasome Macropain subunit (Homo sapiens) (UniProt P49721); assay: Displacement of fluorescent labeled MV151 from 26S proteasome beta 2 in human HEK293 cell lysate assessed as residual activity at 1 uM after 1 hr by SDS-PAGE; format: cell-free
[17] = molecular target: Proteasome Macropain subunit (Homo sapiens) (UniProt P49721); assay: Displacement of fluorescent labeled MV151 from 26S proteasome beta 2 in human HEK293 cell lysate assessed as residual activity at 100 uM after 1 hr by SDS-PAGE; format: cell-free
[18] = molecular target: T1, Proteasome Macropain subunit MB1 (Homo sapiens); assay: Displacement of fluorescent labeled MV151 from 26S proteasome beta 5 in human HEK293 cell lysate assessed as residual activity at 1 uM after 1 hr by SDS-PAGE; format: cell-free
[19] = molecular target: Proteasome subunit beta type-5 (Homo sapiens) (UniProt P28074); assay: Inhibition of 26S proteasome beta 5 in human HEK293 cell lysate assessed as residual activity at […] after 1 hr
[20] = molecular target: Proteasome subunit beta type-5 (Homo sapiens) (UniProt P28074); assay: as above; remark: listed apart in the source
[21] = molecular target: Proteasome subunit beta type-5 (Homo sapiens) (UniProt P28074); assay: Inhibition of 26S proteasome beta 5 in human HEK293 cell lysate assessed as residual activity at 1.5 uM after 1 hr
[22] = molecular target: Proteasome subunit beta type-5 (Homo sapiens) (UniProt P28074); assay: Inhibition of 26S proteasome beta 5 in human HEK293 cell lysate assessed as residual activity at 0.5 uM after 1 hr
[23] = molecular target: Proteasome subunit beta type-5 (Homo sapiens) (UniProt P28074); assay: Inhibition of 26S proteasome beta 5 in human HEK293 cell lysate assessed as residual activity at 13.5 uM after 1 hr
[24] = molecular target: Proteasome subunit beta type-5 (Homo sapiens) (UniProt P28074); assay: Inhibition of 26S proteasome beta 5 in human HEK293 cell lysate assessed as residual activity at 0.167 uM after 1 hr
[25] = molecular target: T2, Proteasome component C5 (Homo sapiens); assay: Inhibition of 26S proteasome beta 1 in human HEK293 cell lysate assessed as residual activity at 0.019 uM after 1 hr; format: cell-free
[26] = molecular target: T2, Proteasome component C5 (Homo sapiens); assay: Inhibition of 26S proteasome beta 1 in human HEK293 cell lysate assessed as residual activity at 0.002 uM after 1 hr; format: cell-free
[27] = molecular target: T2, Proteasome component C5 (Homo sapiens); assay: Inhibition of 26S proteasome beta 1 in human HEK293 cell lysate assessed as residual activity at 0.001 uM after 1 hr; format: cell-free
[28] = molecular target: Proteasome Macropain subunit (Homo sapiens) (UniProt P49721); assay: Inhibition of 26S proteasome beta 2 in human HEK293 cell lysate assessed as residual activity at 0.019 uM after 1 hr; format: cell-free
[29] = molecular target: Proteasome Macropain subunit (Homo sapiens) (UniProt P49721); assay: Inhibition of 26S proteasome beta 2 in human HEK293 cell lysate assessed as residual activity at 0.006 uM after 1 hr; format: cell-free
[30] = molecular target: Proteasome Macropain subunit (Homo sapiens) (UniProt P49721); assay: Inhibition of 26S proteasome beta 2 in human HEK293 cell lysate assessed as residual activity at 0.002 uM after 1 hr; format: cell-free
[31] = molecular target: Proteasome Macropain subunit (Homo sapiens) (UniProt P49721); assay: Inhibition of 26S proteasome beta 2 in human HEK293 cell lysate assessed as residual activity at 0.001 uM after 1 hr; format: cell-free
[32] = molecular target: T2, Proteasome component C5 (Homo sapiens); assay: Inhibition of 26S proteasome beta 1 in human HEK293 cell lysate assessed as residual activity at 0.006 uM after 1 hr; format: cell-free
[33] = molecular target: Proteasome subunit beta type-5 (Homo sapiens) (UniProt P28074); assay: Inhibition of 26S proteasome beta 5 in human HEK293 cell lysate assessed as residual activity at 0.019 uM after 1 hr
[34] = molecular target: Proteasome subunit beta type-5 (Homo sapiens) (UniProt P28074); assay: Inhibition of 26S proteasome beta 5 in human HEK293 cell lysate assessed as residual activity at 0.006 uM after 1 hr
[35] = molecular target: Proteasome subunit beta type-5 (Homo sapiens) (UniProt P28074); assay: Inhibition of 26S proteasome beta 5 in human HEK293 cell lysate assessed as residual activity at 0.002 uM after 1 hr
[36] = molecular target: Proteasome subunit beta type-5 (Homo sapiens) (UniProt P28074); assay: Inhibition of 26S proteasome beta 5 in human HEK293 cell lysate assessed as residual activity at 0.001 uM after 1 hr
[37] = molecular target: T2, Proteasome component C5 (Homo sapiens); assay: Displacement of fluorescent labeled MV151 from 26S proteasome beta 1 in human HEK293 cell lysate assessed as disappearance of band at 0.1 to 1 uM after 1 hr by SDS-PAGE; format: cell-free
[38] = molecular target: T1, Proteasome Macropain subunit MB1 (Homo sapiens); assay: Displacement of fluorescent labeled MV151 from 26S proteasome beta 5 in human HEK293 cell lysate assessed as disappearance of band at 0.1 to 1 uM after 1 hr by SDS-PAGE; format: cell-free

CC(C)C[C@H](NC(=O)[C@H](Cc1ccccc1)NC(=O)[C@H](Cc1c(F)c(F)c(F)c(F)c1F)NC(=O)[C@H](Cc1ccccc1)N=[N+]=[N-])C(=O)[C@@]1(C)CO1
Activity [1]: 0.83% | Activity [2]: 73.1% | Activity [3]: 102% | Activity [4]: 115% | Activity [5]: 103% | Activity [6]: 89.4% | Activity [7]: 83.2% | Activity [8]: 119% | Activity [9]: 127% | Activity [10]: 118% | Activity [11]: 89.9% | Activity [12]: 98.7% | Activity [13]: 98.4% | Activity [14]: 82.1% | Activity [15]: 87.6% | Activity [16]: 2.9% | Activity [17]: 56.9% | Activity [18]: 89.1% | Activity [19]: 8% | Activity [20]: 56.2% | Activity [21]: 14.7% | Activity [22]: 29.7% | Activity [23]: 5.8% | Activity [24]: 48.9%

CC(C)C[C@H](NC(=O)[C@H](Cc1ccccc1)NC(=O)[C@H](Cc1cc(C(F)(F)F)cc(C(F)(F)F)c1)NC(=O)[C@H](Cc1ccccc1)N=[N+]=[N-])C(=O)[C@@]1(C)CO1
Activity [1]: 3% | Activity [2]: 61.3% | Activity [3]: 90.3% | Activity [4]: 104% | Activity [5]: 104% | Activity [6]: 85.7% | Activity [7]: 116% | Activity [25]: 94.7% | Activity [26]: 92.8% | Activity [27]: 112% | Activity [8]: 92.9% | Activity [9]: 113% | Activity [10]: 110% | Activity [11]: 98.4% | Activity [12]: 105% | Activity [28]: 100% | Activity [29]: 100% | Activity [30]: 104% | Activity [31]: 118% | Activity [32]: 96.9% | Activity [13]: 73.4% | Activity [14]: 167% | Activity [15]: 80% | Activity [16]: 3.1% | Activity [17]: 128% | Activity [18]: 78% | Activity [19]: 11% | Activity [20]: 70.5% | Activity [21]: 9.8% | Activity [22]: 20.5% | Activity [23]: 5.1% | Activity [24]: 44.3% | Activity [33]: 94.4% | Activity [34]: 93.5% | Activity [35]: 101% | Activity [36]: 116%

CC(C)C[C@H](NC(=O)[C@H](Cc1ccccc1)NC(=O)[C@H](Cc1ccccc1)NC(=O)[C@H](Cc1ccccc1)N=[N+]=[N-])C(=O)[C@@]1(C)CO1
Activity [2]: 58.3% | Activity [3]: 54% | Activity [4]: 69.9% | Activity [5]: 58.4% | Activity [6]: 84.9% | Activity [7]: 104% | Activity [25]: 76.8% | Activity [26]: 100% | Activity [27]: 105% | Activity [8]: 26.1% | Activity [9]: 37% | Activity [10]: 65.8% | Activity [11]: 89% | Activity [12]: 115% | Activity [28]: 82% | Activity [29]: 105% | Activity [30]: 109% | Activity [31]: 106% | Activity [32]: 96.5% | Activity [13]: 10.6% | Activity [14]: 139% | Activity [15]: 7.2% | Activity [17]: 133% | Activity [18]: 4.6%

CC(C)C[C@H](NC(=O)[C@H](Cc1ccccc1)NC(=O)c1cnccn1)B1OC2C[C@@H]3C[C@@H](C3(C)C)[C@]2(C)O1 (stereo partly specified)
Activity [37]: Active | Activity [38]: Active
